The results in this text go back to patent US8394848B2, “Compounds that modulate intracellular calcium” (Calcimedica, Inc., priority 2008, dated 2013).

In general, IC50 refers to the concentration at which inhibition is half-maximal.

A value given as a limit tells only on which side of the number the result lay.

The assay has as its system JR251 or RBL cells. The experiment in a line: Store-operated calcium entry, either JR251 or RBL cells, or both. The class given is cell-based. The protocol:
The day prior to performing the assay, RBL-2H3 cells are plated in 50 μL of complete medium in a 384 well plate. Cells are grown at 37° C./6% CO2 overnight and grow to 50-60% confluence by the next day. On the assay day, 1.5 μM Fluo-4-AM dye (Invitrogen) in complete medium is added and incubated for 1 hour at RT. Cells are washed twice in Ca^2+-free HBSS buffer and 35 μL Ca^2+-free HBSS buffer is added to each well. 10 μL of a test compound prepared in a Ca^2+-free HBSS solution at 4.5× of the desired concentration is added to a well and incubated for 5 minutes at RT. 10 μL of thapsigargin prepared in a Ca^2+-free HBSS solution at 5.5× of the desired concentration (5.5 uM) is added to each well and incubated for an additional 25 minutes. The initial baseline fluorescence signal is measured with a FLIPR^384 (Molecular Devices) plate reader. 5 μL of 12× calcium in HBSS (12 mM) is added and changes in cellular fluorescence are measured with the FLIPR^384 plate reader. In each well, the change in the fluorescent signal as a function of time due to calcium entry into the cell is determined by calculating the difference between the fluorescent signal measured 7 seconds after calcium addition and the initial baseline fluorescence signal at time zero (t=0). This parameter is designated Upslope. The IC50 value is calculated as the concentration at which 50% of the Upslope is inhibited.
For `Cc1ccc(-c2csc(NC(=O)c3cc4c(C)nn(C)c4s3)c2C(=O)O)cc1` [2-(1,3-dimethyl-1H-thieno[2,3-c]pyrazole-5-carboxamido)-4-p-tolylthiophene-3-carboxylic acid], the IC50 is below 10 µM. Under `Cc1ccc(-c2csc(NC(=O)c3cc(C)n(C)n3)c2C(=O)O)cc1` [2-(1,5-dimethyl-1H-pyrazole-3-carboxamido)-4-p-tolylthiophene-3-carboxylic acid] stands below 10 µM; under `O=C(Nc1scc(-c2ccc(Cl)cc2)c1C(=O)O)c1nc2ccccc2[nH]1` [2-(1H-benzo[d]imidazole-2-carboxamido)-4-(4-chlorophenyl)thiophene-3-carboxylic acid], below 10 µM. Under `O=C(Nc1scc(-c2ccc(Cl)cc2)c1C(=O)O)c1ccc(-c2cccs2)s1` [2-(2,2′-bithiophene-5-carboxamido)-4-(4-chlorophenyl)thiophene-3-carboxylic acid] stands below 10 µM; under `Cc1ccc(-c2csc(NC(=O)c3ccc(-c4cccs4)s3)c2C(=O)O)cc1` [2-(2,2′-bithiophene-5-carboxamido)-4-p-tolylthiophene-3-carboxylic acid], below 10 µM; under `Cc1ccc(-c2csc(NC(=O)c3cc(Cl)sc3Cl)c2C(=O)O)cc1` [2-(2,5-dichlorothiophene-3-carboxamido)-4-p-tolylthiophene-3-carboxylic acid], below 10 µM. The same measure for `Cc1ccc(-c2csc(NC(=O)c3cc(C)oc3C)c2C(=O)O)cc1` [2-(2,5-dimethylfuran-3-carboxamido)-4-p-tolylthiophene-3-carboxylic acid]: below 10 µM.

Take `CC(C)C(C(=O)Nc1scc(-c2ccc(Cl)c(Cl)c2)c1C(=O)O)c1ccc(Cl)cc1` (stereo not drawn) [2-(2-(4-chlorophenyl)-3-methylbutanamido)-4-(3,4-dichlorophenyl)thiophene-3-carboxylic acid]: the IC50 is below 10 µM.

In the case of `O=C(Cc1cc2ccccc2o1)Nc1scc(-c2ccc(Br)cc2)c1C(=O)O` [2-(2-(benzofuran-2-yl)acetamido)-4-(4-bromophenyl)thiophene-3-carboxylic acid], the IC50 is below 10 µM. For the molecule `O=C(Cc1coc2ccccc12)Nc1scc(-c2ccc(Br)cc2)c1C(=O)O` [2-(2-(benzofuran-3-yl)acetamido)-4-(4-bromophenyl)thiophene-3-carboxylic acid], the IC50 is below 10 µM. Under `O=C(CSc1ccccc1)Nc1scc(-c2ccc(C(F)(F)F)cc2)c1C(=O)O` [2-(2-(phenylthio)acetamido)-4-(4-(trifluoromethyl)phenyl)thiophene-3-carboxylic acid] stands below 10 µM; under `CC(C)(C)C(Cc1ccccc1)C(=O)Nc1scc(-c2ccc(Cl)cc2)c1C(=O)O` (stereo not drawn) [2-(2-benzyl-3,3-dimethylbutanamido)-4-(4-chlorophenyl)thiophene-3-carboxylic acid], below 10 µM; under `O=C(O)c1c(-c2ccc(Cl)cc2)csc1NC(=O)C(Cl)Cc1ccccc1Cl` (stereo not drawn) [2-(2-chloro-3-(2-chlorophenyl)propanamido)-4-(4-chlorophenyl)thiophene-3-carboxylic acid], below 10 µM.

Consider `O=C(O)c1c(-c2ccc(Cl)cc2)csc1NC(=O)C(Cl)Cc1ccccc1` (stereo not drawn) [2-(2-chloro-3-phenylpropanamido)-4-(4-chlorophenyl)thiophene-3-carboxylic acid], for which the IC50 was below 10 µM.

Take `Cc1ccc(-c2csc(NC(=O)c3cc(-c4ccccc4)oc3C)c2C(=O)O)cc1` [2-(2-methyl-5-phenylfuran-3-carboxamido)-4-p-tolylthiophene-3-carboxylic acid]: the IC50 is below 10 µM. In the case of `O=C(O)c1c(-c2ccc(Cl)cc2)csc1NC(=O)C(F)Cc1cc(F)c(F)cc1Cl` (stereo not drawn) [2-(3-(2-chloro-4,5-difluorophenyl)-2-fluoropropanamido)-4-(4-chlorophenyl)thiophene-3-carboxylic acid], the IC50 is below 10 µM.

`O=C(O)c1c(-c2ccc(Cl)cc2)csc1NC(=O)C(F)Cc1ccc(F)cc1Cl` (stereo not drawn) [2-(3-(2-chloro-4-fluorophenyl)-2-fluoropropanamido)-4-(4-chlorophenyl)thiophene-3-carboxylic acid]: the IC50 was below 10 µM. On to `O=C(O)c1c(-c2ccc(Cl)cc2)csc1NC(=O)C(F)Cc1cc(F)ccc1Cl` (stereo not drawn) [2-(3-(2-chloro-5-fluorophenyl)-2-fluoropropanamido)-4-(4-chlorophenyl)thiophene-3-carboxylic acid], for which the IC50 is below 10 µM. The same measure for `O=C(O)c1c(-c2ccc(Cl)cc2)csc1NC(=O)C(F)Cc1c(F)cccc1Cl` (stereo not drawn) [2-(3-(2-chloro-6-fluorophenyl)-2-fluoropropanamido)-4-(4-chlorophenyl)thiophene-3-carboxylic acid]: below 10 µM; for `O=C(NCc1ccccc1)Nc1scc(-c2ccc(Br)cc2)c1C(=O)O` [2-(3-benzylureido)-4-(4-bromophenyl)thiophene-3-carboxylic acid]: below 10 µM; for `O=C(NCc1ccccc1)Nc1scc(-c2ccc(Cl)cc2)c1C(=O)O` [2-(3-benzylureido)-4-(4-chlorophenyl)thiophene-3-carboxylic acid]: below 10 µM. Under `CC(C)S(=O)(=O)c1csc(C(=O)Nc2scc(-c3ccc(Cl)cc3)c2C(=O)O)c1Cl` [2-(3-chloro-4-(isopropylsulfonyl)thiophene-2-carboxamido)-4-(4-chlorophenyl)thiophene-3-carboxylic acid] stands below 10 µM. Take `Cc1ccc(-c2csc(NC(=O)c3scc(S(=O)(=O)C(C)C)c3Cl)c2C(=O)O)cc1` [2-(3-chloro-4-(isopropylsulfonyl)thiophene-2-carboxamido)-4-p-tolylthiophene-3-carboxylic acid]: the IC50 is below 10 µM. As for `CS(=O)(=O)c1csc(C(=O)Nc2scc(-c3ccc(Cl)cc3)c2C(=O)O)c1Cl` [2-(3-chloro-4-(methylsulfonyl)thiophene-2-carboxamido)-4-(4-chlorophenyl)thiophene-3-carboxylic acid], the IC50 was below 10 µM. Under `Cc1ccc(-c2csc(NC(=O)c3scc(S(C)(=O)=O)c3Cl)c2C(=O)O)cc1` [2-(3-chloro-4-(methylsulfonyl)thiophene-2-carboxamido)-4-p-tolylthiophene-3-carboxylic acid] stands below 10 µM; under `Cc1ccsc1C(=O)Nc1scc(-c2ccc(C(F)(F)F)cc2)c1C(=O)O` [2-(3-methylthiophene-2-carboxamido)-4-(4-(trifluoromethyl)phenyl)thiophene-3-carboxylic acid], below 10 µM; under `Cc1ccc(-c2csc(NC(=O)c3sccc3C)c2C(=O)O)cc1` [2-(3-methylthiophene-2-carboxamido)-4-p-tolylthiophene-3-carboxylic acid], below 10 µM. Under `Cc1ccc(-c2csc(NC(=O)c3cc4c(Cl)cc(Cl)cc4[nH]3)c2C(=O)O)cc1` [2-(4,6-dichloro-1H-indole-2-carboxamido)-4-p-tolylthiophene-3-carboxylic acid] stands below 10 µM; under `Cc1ccc(-c2csc(NC(=O)c3scc(S(=O)(=O)c4ccc(Cl)cc4)c3C)c2C(=O)O)cc1` [2-(4-(4-chlorophenylsulfonyl)-3-methylthiophene-2-carboxamido)-4-p-tolylthiophene-3-carboxylic acid], below 10 µM; under `O=C(Nc1scc(-c2cc3cccc(O)c3o2)c1C(=O)O)c1cc2c(F)cccc2o1` [2-(4-fluorobenzofuran-2-carboxamido)-4-(7-hydroxybenzofuran-2-yl)thiophene-3-carboxylic acid], below 10 µM.
